Measurements taken from paper PMC3710292 (Cellular and molecular life sciences : CMLS, 2013).

Legend:
Format in all cases: cell-based
[1] = target: human TRPM7 (Homo sapiens, UniProt Q96QT4); assay: whole-cell patch clamp, current at +[…] mV
[2] = target: TRPM7 Δ-kinase (Homo sapiens, UniProt Q96QT4); assay: whole-cell patch clamp, current at +[…] mV
[3] = target: human TRPM6 (hTRPM6) (Homo sapiens, UniProt Q9BX84); assay: whole-cell patch clamp, current at +[…] mV, […] s; conditions: intracellular iodide 154 mM; no intracellular Mg2+; pH 7.2
human TRPM6 (hTRPM6), sequence (Q9BX84 whole entry): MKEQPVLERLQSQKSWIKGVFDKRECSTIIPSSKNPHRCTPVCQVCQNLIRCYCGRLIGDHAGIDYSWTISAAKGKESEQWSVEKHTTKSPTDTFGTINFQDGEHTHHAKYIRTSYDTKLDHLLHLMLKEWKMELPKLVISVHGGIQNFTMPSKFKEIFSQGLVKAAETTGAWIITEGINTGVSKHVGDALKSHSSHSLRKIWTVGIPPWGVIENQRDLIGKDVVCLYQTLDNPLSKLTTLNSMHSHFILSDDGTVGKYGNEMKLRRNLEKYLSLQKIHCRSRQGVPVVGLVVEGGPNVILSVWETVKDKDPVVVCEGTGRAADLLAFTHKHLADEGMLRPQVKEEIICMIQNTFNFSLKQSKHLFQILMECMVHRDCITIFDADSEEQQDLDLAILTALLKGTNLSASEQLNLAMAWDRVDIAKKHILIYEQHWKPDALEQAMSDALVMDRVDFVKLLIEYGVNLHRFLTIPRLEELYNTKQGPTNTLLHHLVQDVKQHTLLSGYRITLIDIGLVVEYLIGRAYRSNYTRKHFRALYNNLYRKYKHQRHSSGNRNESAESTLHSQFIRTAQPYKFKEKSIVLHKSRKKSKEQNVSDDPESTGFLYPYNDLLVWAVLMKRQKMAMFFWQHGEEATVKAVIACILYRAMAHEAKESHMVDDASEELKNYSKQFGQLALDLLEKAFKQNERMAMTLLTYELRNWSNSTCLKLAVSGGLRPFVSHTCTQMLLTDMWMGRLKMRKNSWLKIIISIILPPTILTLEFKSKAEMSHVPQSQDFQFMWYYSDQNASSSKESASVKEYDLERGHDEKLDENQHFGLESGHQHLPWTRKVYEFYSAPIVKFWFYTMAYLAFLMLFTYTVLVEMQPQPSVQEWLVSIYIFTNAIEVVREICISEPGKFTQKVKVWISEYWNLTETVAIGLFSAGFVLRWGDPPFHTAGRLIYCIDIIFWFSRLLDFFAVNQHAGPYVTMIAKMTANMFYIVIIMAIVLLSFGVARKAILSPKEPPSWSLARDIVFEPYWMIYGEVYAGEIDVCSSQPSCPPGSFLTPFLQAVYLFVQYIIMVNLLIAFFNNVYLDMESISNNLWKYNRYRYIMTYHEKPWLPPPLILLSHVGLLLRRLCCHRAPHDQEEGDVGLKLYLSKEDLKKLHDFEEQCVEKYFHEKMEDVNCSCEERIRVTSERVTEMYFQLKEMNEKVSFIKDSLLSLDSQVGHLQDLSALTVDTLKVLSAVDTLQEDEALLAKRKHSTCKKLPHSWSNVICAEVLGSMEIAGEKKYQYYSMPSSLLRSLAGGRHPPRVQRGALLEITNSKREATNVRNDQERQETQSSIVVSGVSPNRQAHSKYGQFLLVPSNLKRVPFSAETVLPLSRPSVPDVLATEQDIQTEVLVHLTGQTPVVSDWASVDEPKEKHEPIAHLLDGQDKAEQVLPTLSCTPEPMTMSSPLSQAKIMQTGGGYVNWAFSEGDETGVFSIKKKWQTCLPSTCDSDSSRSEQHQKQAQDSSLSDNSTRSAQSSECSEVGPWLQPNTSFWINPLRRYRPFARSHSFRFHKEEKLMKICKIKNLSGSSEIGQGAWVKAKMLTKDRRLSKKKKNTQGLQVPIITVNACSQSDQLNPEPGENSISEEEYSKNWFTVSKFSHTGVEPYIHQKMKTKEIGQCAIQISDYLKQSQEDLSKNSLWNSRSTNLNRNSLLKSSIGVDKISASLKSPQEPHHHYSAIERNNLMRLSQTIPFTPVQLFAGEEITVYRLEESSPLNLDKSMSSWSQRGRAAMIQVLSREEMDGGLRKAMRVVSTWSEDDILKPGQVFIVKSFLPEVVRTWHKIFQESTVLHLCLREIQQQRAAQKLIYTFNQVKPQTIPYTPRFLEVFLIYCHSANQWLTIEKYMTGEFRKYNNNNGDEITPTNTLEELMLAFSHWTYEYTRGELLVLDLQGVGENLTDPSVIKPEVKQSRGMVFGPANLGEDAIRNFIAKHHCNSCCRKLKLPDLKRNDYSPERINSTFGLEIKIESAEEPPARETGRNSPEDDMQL

human TRPM7, sequence (Q96QT4 whole entry): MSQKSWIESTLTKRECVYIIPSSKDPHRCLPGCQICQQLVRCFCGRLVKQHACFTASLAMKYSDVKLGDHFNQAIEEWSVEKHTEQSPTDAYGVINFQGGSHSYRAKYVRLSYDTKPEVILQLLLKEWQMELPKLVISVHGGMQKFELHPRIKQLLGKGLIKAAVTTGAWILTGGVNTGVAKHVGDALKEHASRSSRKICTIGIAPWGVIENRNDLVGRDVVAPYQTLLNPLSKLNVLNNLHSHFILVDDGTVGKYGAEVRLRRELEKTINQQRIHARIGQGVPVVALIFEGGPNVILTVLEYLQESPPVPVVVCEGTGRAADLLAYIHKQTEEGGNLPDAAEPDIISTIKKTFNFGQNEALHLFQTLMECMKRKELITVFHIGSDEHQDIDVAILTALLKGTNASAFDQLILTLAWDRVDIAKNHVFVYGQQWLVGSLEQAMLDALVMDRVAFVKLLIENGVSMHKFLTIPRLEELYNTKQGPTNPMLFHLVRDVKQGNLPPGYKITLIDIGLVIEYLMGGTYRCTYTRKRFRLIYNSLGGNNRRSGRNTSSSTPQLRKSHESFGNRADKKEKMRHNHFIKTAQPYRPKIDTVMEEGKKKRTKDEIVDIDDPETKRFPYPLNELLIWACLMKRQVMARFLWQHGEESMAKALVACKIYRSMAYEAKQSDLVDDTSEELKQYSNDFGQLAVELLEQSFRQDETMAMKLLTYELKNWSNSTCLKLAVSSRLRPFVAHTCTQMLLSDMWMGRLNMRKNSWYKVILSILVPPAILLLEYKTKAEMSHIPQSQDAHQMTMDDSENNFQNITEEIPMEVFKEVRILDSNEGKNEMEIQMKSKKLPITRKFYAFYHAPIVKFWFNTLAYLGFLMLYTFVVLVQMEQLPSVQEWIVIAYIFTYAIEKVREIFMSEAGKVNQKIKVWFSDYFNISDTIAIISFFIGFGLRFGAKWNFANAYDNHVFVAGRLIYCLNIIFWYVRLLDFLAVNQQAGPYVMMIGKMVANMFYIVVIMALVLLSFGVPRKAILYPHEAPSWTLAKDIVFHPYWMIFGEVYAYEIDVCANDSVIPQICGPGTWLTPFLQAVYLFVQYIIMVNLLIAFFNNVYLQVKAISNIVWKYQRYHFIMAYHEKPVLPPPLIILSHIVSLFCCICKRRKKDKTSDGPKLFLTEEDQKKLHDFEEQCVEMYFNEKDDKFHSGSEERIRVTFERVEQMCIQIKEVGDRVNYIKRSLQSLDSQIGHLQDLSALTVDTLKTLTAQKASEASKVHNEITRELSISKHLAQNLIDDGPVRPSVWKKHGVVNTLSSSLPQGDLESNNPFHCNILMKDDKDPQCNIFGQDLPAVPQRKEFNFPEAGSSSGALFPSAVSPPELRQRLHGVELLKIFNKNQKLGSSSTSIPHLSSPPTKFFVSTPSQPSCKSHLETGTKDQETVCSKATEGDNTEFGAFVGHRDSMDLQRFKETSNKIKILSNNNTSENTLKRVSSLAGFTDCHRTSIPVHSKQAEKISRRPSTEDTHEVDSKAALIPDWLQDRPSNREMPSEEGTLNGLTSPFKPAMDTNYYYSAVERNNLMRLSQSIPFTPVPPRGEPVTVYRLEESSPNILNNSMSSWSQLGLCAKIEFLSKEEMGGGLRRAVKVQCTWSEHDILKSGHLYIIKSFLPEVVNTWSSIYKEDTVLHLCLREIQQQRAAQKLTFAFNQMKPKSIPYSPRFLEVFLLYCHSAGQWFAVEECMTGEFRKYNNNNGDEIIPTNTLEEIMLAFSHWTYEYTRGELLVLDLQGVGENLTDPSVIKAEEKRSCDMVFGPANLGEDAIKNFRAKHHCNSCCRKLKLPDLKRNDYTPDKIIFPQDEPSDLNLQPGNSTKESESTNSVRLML

| IC50 [2] [mM] | % inhibition at 154 mM [3] [%] | Compound | IC50 [1] [mM] |
| --- | --- | --- | --- |
| – | – | Br [bromide] | 88 ± 6 |
| – | – | Cl [chloride] | 99 ± 9 |
| 31 ± 3 | 52 | I [iodide] | – |
